In patent US9738634B2, “Heterocyclic amide compound and herbicide” (SYNGENTA PARTICIPATIONS AG, priority 2013, dated 2017):

Experiments:
Assay type in all cases: in vivo
[1] = tested on: barnyard grass; assay: Test Example 1: weedkilling efficacy, preemergent weed treatment in the submerged state; A: barnyard grass; conditions: treatment dosage 252 g/ha
Procedure, shortened: (§1)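 Pots of alluvial soil flooded 4 cm deep, sown with barnyard grass, bulrush and oval-leafed pondweed and transplanted with 2.5-leaf rice. Emulsified compound applied to the water surface on sowing day at stated g/ha; greenhouse 25–30 °C, effects assessed 3 weeks after treatment.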

[2] = tested on: bulrush; assay: Test Example 1: weedkilling efficacy, preemergent weed treatment in the submerged state; B: bulrush; conditions: treatment dosage 252 g/ha
Procedure, shortened: as §1

[3] = tested on: oval-leafed pondweed; assay: Test Example 1: weedkilling efficacy, preemergent weed treatment in the submerged state; C: oval-leafed pondweed; conditions: treatment dosage 252 g/ha
Procedure, shortened: as §1

[4] = tested on: transplanted rice; assay: Test Example 1: preemergent weed treatment in the submerged state, effect on crop; a: transplanted rice; conditions: treatment dosage 252 g/ha
Procedure, shortened: as §1

[5] = tested on: barnyard grass; assay: Test Example 2: weedkilling efficacy, growth period weed treatment in the submerged state; A: barnyard grass; conditions: treatment dosage 252 g/ha
Procedure, shortened: (§2)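 Barnyard grass, bulrush and oval-leafed pondweed sown in alluvial soil under 4 cm flooding, greenhouse 25 to 30° C. At 1-2 leaf stage, water-diluted emulsion applied to the water surface at stated g/ha dosages; effects scored 3 weeks later.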

[6] = tested on: bulrush; assay: Test Example 2: weedkilling efficacy, growth period weed treatment in the submerged state; B: bulrush; conditions: treatment dosage 252 g/ha
Procedure, shortened: as §2

[7] = tested on: oval-leafed pondweed; assay: Test Example 2: weedkilling efficacy, growth period weed treatment in the submerged state; C: oval-leafed pondweed; conditions: treatment dosage 252 g/ha
Procedure, shortened: as §2

[8] = tested on: crabgrass; assay: Test Example 3: weedkilling efficacy through soil treatment; D: crabgrass; conditions: treatment dosage 315 g/ha
Procedure, shortened: (§3)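 Crop and weed responses were judged three weeks after a uniform surface spray of the water-diluted emulsion at the given g/ha rate. Seeds sat beneath about 1.5 cm of sterilized diluvial soil, and boxes stood in a greenhouse at 25 to 30° C.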

[9] = tested on: green foxtail; assay: Test Example 3: weedkilling efficacy through soil treatment; E: green foxtail; conditions: treatment dosage 315 g/ha
Procedure, shortened: as §3

[10] = tested on: wild oat; assay: Test Example 3: weedkilling efficacy through soil treatment; G: wild oat; conditions: treatment dosage 315 g/ha
Procedure, shortened: as §3

[11] = tested on: black-grass; assay: Test Example 3: weedkilling efficacy through soil treatment; H: black-grass; conditions: treatment dosage 315 g/ha
Procedure, shortened: as §3

[12] = tested on: Italian ryegrass; assay: Test Example 3: weedkilling efficacy through soil treatment; I: Italian ryegrass; conditions: treatment dosage 315 g/ha
Procedure, shortened: as §3

[13] = tested on: Indian mallow; assay: Test Example 3: weedkilling efficacy through soil treatment; K: Indian mallow; conditions: treatment dosage 315 g/ha
Procedure, shortened: as §3

[14] = tested on: redroot pigweed; assay: Test Example 3: weedkilling efficacy through soil treatment; L: redroot pigweed; conditions: treatment dosage 315 g/ha
Procedure, shortened: as §3

[15] = tested on: fig-leafed goosefoot; assay: Test Example 3: weedkilling efficacy through soil treatment; M: fig-leafed goosefoot; conditions: treatment dosage 315 g/ha
Procedure, shortened: as §3

[16] = tested on: chickweed; assay: Test Example 3: weedkilling efficacy through soil treatment; N: chickweed; conditions: treatment dosage 315 g/ha
Procedure, shortened: as §3

[17] = tested on: birds-eye speedwell; assay: Test Example 3: weedkilling efficacy through soil treatment; p: birds-eye speedwell; conditions: treatment dosage 315 g/ha
Procedure, shortened: as §3

[18] = tested on: directly sown rice; assay: Test Example 3: soil treatment, effect on crop; b: directly sown rice; conditions: treatment dosage 315 g/ha
Procedure, shortened: as §3

[19] = tested on: corn; assay: Test Example 3: soil treatment, effect on crop; c: corn; conditions: treatment dosage 315 g/ha
Procedure, shortened: as §3

[20] = tested on: soybean; assay: Test Example 3: soil treatment, effect on crop; d: soybean; conditions: treatment dosage 315 g/ha
Procedure, shortened: as §3

[21] = tested on: wheat; assay: Test Example 3: soil treatment, effect on crop; e: wheat; conditions: treatment dosage 315 g/ha
Procedure, shortened: as §3

[22] = tested on: beet; assay: Test Example 3: soil treatment, effect on crop; f: beet; conditions: treatment dosage 315 g/ha
Procedure, shortened: as §3

[23] = tested on: crabgrass; assay: Test Example 4: weedkilling efficacy by foliar treatment; D: crabgrass; conditions: treatment dosage 315 g/ha
Procedure, shortened: (§4)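 Seeds are spot-sown into sterilized diluvial soil and covered with about 1.5 cm of soil. After 14 days' greenhouse growth at 25 to 30° C, plants are sprayed on stems and leaves with diluted emulsion at the stated g/ha rate, then scored at 3 weeks.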

[24] = tested on: green foxtail; assay: Test Example 4: weedkilling efficacy by foliar treatment; E: green foxtail; conditions: treatment dosage 315 g/ha
Procedure, shortened: as §4

[25] = tested on: black-grass; assay: Test Example 4: weedkilling efficacy by foliar treatment; H: black-grass; conditions: treatment dosage 315 g/ha
Procedure, shortened: as §4

[26] = tested on: Italian ryegrass; assay: Test Example 4: weedkilling efficacy by foliar treatment; I: Italian ryegrass; conditions: treatment dosage 315 g/ha
Procedure, shortened: as §4

[27] = tested on: Indian mallow; assay: Test Example 4: weedkilling efficacy by foliar treatment; K: Indian mallow; conditions: treatment dosage 315 g/ha
Procedure, shortened: as §4

[28] = tested on: redroot pigweed; assay: Test Example 4: weedkilling efficacy by foliar treatment; L: redroot pigweed; conditions: treatment dosage 315 g/ha
Procedure, shortened: as §4

[29] = tested on: fig-leafed goosefoot; assay: Test Example 4: weedkilling efficacy by foliar treatment; M: fig-leafed goosefoot; conditions: treatment dosage 315 g/ha
Procedure, shortened: as §4

[30] = tested on: chickweed; assay: Test Example 4: weedkilling efficacy by foliar treatment; N: chickweed; conditions: treatment dosage 315 g/ha
Procedure, shortened: as §4

[31] = tested on: catchweed; assay: Test Example 4: weedkilling efficacy by foliar treatment; O: catchweed; conditions: treatment dosage 315 g/ha
Procedure, shortened: as §4

[32] = tested on: birds-eye speedwell; assay: Test Example 4: weedkilling efficacy by foliar treatment; p: birds-eye speedwell; conditions: treatment dosage 315 g/ha
Procedure, shortened: as §4

[33] = tested on: directly sown rice; assay: Test Example 4: foliar treatment, effect on crop; b: directly sown rice; conditions: treatment dosage 315 g/ha
Procedure, shortened: as §4

[34] = tested on: corn; assay: Test Example 4: foliar treatment, effect on crop; c: corn; conditions: treatment dosage 315 g/ha
Procedure, shortened: as §4

[35] = tested on: soybean; assay: Test Example 4: foliar treatment, effect on crop; d: soybean; conditions: treatment dosage 315 g/ha
Procedure, shortened: as §4

[36] = tested on: wheat; assay: Test Example 4: foliar treatment, effect on crop; e: wheat; conditions: treatment dosage 315 g/ha
Procedure, shortened: as §4

[37] = tested on: beet; assay: Test Example 4: foliar treatment, effect on crop; f: beet; conditions: treatment dosage 315 g/ha
Procedure, shortened: as §4

Row | SMILES | A (barnyard grass) weedkilling efficacy grade [1] | B (bulrush) weedkilling efficacy grade [2] | C (oval-leafed pondweed) weedkilling efficacy grade [3] | a (transplanted rice) effect on crop grade [4] | A (barnyard grass) weedkilling efficacy grade [5] | B (bulrush) weedkilling efficacy grade [6] | C (oval-leafed pondweed) weedkilling efficacy grade [7] | D (crabgrass) weedkilling efficacy grade [8] | E (green foxtail) weedkilling efficacy grade [9] | G (wild oat) weedkilling efficacy grade [10] | H (black-grass) weedkilling efficacy grade [11] | I (Italian ryegrass) weedkilling efficacy grade [12] | K (Indian mallow) weedkilling efficacy grade [13] | L (redroot pigweed) weedkilling efficacy grade [14] | M (fig-leafed goosefoot) weedkilling efficacy grade [15] | N (chickweed) weedkilling efficacy grade [16] | P (birds-eye speedwell) weedkilling efficacy grade [17] | b (directly sown rice) effect on crop grade [18] | c (corn) effect on crop grade [19] | d (soybean) effect on crop grade [20] | further results
1 | CC1=C(c2ccsc2)C(=O)N(C(C)(C)C(=O)Nc2nc(C)ns2)CO1 [B-1-01] | 5 (weed kill ratio 90% or more, (practically complete withering)) | 5 (weed kill ratio 90% or more, (practically complete withering)) | 5 (weed kill ratio 90% or more, (practically complete withering)) | 4 (weed kill ratio 70% or more, less than 90%) | 5 (weed kill ratio 90% or more, (practically complete withering)) | 5 (weed kill ratio 90% or more, (practically complete withering)) | 5 (weed kill ratio 90% or more, (practically complete withering)) | 5 (weed kill ratio 90% or more, (practically complete withering)) | 5 (weed kill ratio 90% or more, (practically complete withering)) | 5 (weed kill ratio 90% or more, (practically complete withering)) | 5 (weed kill ratio 90% or more, (practically complete withering)) | 5 (weed kill ratio 90% or more, (practically complete withering)) | 3 (weed kill ratio 40% or more, less than 70%) | 4 (weed kill ratio 70% or more, less than 90%) | 5 (weed kill ratio 90% or more, (practically complete withering)) | 3 (weed kill ratio 40% or more, less than 70%) | 5 (weed kill ratio 90% or more, (practically complete withering)) | 5 (weed kill ratio 90% or more, (practically complete withering)) | 0 (weed kill ratio 5% or less (practically no effect)) | 2 (weed kill ratio 20% or more, less than 40%) | e (wheat) effect on crop grade [21]: 4 (weed kill ratio 70% or more, less than 90%); f (beet) effect on crop grade [22]: 3 (weed kill ratio 40% or more, less than 70%); D (crabgrass) weedkilling efficacy grade [23]: 5 (weed kill ratio 90% or more, (practically complete withering)); E (green foxtail) weedkilling efficacy grade [24]: 5 (weed kill ratio 90% or more, (practically complete withering)); H (black-grass) weedkilling efficacy grade [25]: 5 (weed kill ratio 90% or more, (practically complete withering)); I (Italian ryegrass) weedkilling efficacy grade [26]: 5 (weed kill ratio 90% or more, (practically complete withering)); K (Indian mallow) weedkilling efficacy grade [27]: 4 (weed kill ratio 70% or more, less than 90%); L (redroot pigweed) weedkilling efficacy grade [28]: 5 (weed kill ratio 90% or more, (practically complete withering)); M (fig-leafed goosefoot) weedkilling efficacy grade [29]: 5 (weed kill ratio 90% or more, (practically complete withering)); N (chickweed) weedkilling efficacy grade [30]: 4 (weed kill ratio 70% or more, less than 90%); O (catchweed) weedkilling efficacy grade [31]: 4 (weed kill ratio 70% or more, less than 90%); P (birds-eye speedwell) weedkilling efficacy grade [32]: 4 (weed kill ratio 70% or more, less than 90%); b (directly sown rice) effect on crop grade [33]: 5 (weed kill ratio 90% or more, (practically complete withering)); c (corn) effect on crop grade [34]: 4 (weed kill ratio 70% or more, less than 90%); d (soybean) effect on crop grade [35]: 4 (weed kill ratio 70% or more, less than 90%); e (wheat) effect on crop grade [36]: 1 (weed kill ratio 5% or more, less than 20%); f (beet) effect on crop grade [37]: 4 (weed kill ratio 70% or more, less than 90%)
2 | CC1=C(c2ccsc2)C(=O)N(C(C)(C)C(=O)Nc2nc(C(C)C)ns2)CO1 [B-1-03] | 5 (weed kill ratio 90% or more, (practically complete withering)) | 5 (weed kill ratio 90% or more, (practically complete withering)) | 5 (weed kill ratio 90% or more, (practically complete withering)) | 3 (weed kill ratio 40% or more, less than 70%) | 5 (weed kill ratio 90% or more, (practically complete withering)) | 5 (weed kill ratio 90% or more, (practically complete withering)) | 5 (weed kill ratio 90% or more, (practically complete withering)) | 5 (weed kill ratio 90% or more, (practically complete withering)) | 5 (weed kill ratio 90% or more, (practically complete withering)) | 5 (weed kill ratio 90% or more, (practically complete withering)) | 5 (weed kill ratio 90% or more, (practically complete withering)) | 5 (weed kill ratio 90% or more, (practically complete withering)) | 4 (weed kill ratio 70% or more, less than 90%) | 4 (weed kill ratio 70% or more, less than 90%) | 5 (weed kill ratio 90% or more, (practically complete withering)) | 3 (weed kill ratio 40% or more, less than 70%) | 5 (weed kill ratio 90% or more, (practically complete withering)) | 5 (weed kill ratio 90% or more, (practically complete withering)) | 0 (weed kill ratio 5% or less (practically no effect)) | 0 (weed kill ratio 5% or less (practically no effect)) | e (wheat) effect on crop grade [21]: 3 (weed kill ratio 40% or more, less than 70%); f (beet) effect on crop grade [22]: 3 (weed kill ratio 40% or more, less than 70%); D (crabgrass) weedkilling efficacy grade [23]: 4 (weed kill ratio 70% or more, less than 90%); E (green foxtail) weedkilling efficacy grade [24]: 4 (weed kill ratio 70% or more, less than 90%); H (black-grass) weedkilling efficacy grade [25]: 5 (weed kill ratio 90% or more, (practically complete withering)); I (Italian ryegrass) weedkilling efficacy grade [26]: 5 (weed kill ratio 90% or more, (practically complete withering)); K (Indian mallow) weedkilling efficacy grade [27]: 4 (weed kill ratio 70% or more, less than 90%); L (redroot pigweed) weedkilling efficacy grade [28]: 4 (weed kill ratio 70% or more, less than 90%); M (fig-leafed goosefoot) weedkilling efficacy grade [29]: 5 (weed kill ratio 90% or more, (practically complete withering)); N (chickweed) weedkilling efficacy grade [30]: 3 (weed kill ratio 40% or more, less than 70%); O (catchweed) weedkilling efficacy grade [31]: 3 (weed kill ratio 40% or more, less than 70%); P (birds-eye speedwell) weedkilling efficacy grade [32]: 4 (weed kill ratio 70% or more, less than 90%); b (directly sown rice) effect on crop grade [33]: 4 (weed kill ratio 70% or more, less than 90%); c (corn) effect on crop grade [34]: 2 (weed kill ratio 20% or more, less than 40%); d (soybean) effect on crop grade [35]: 4 (weed kill ratio 70% or more, less than 90%); e (wheat) effect on crop grade [36]: 0 (weed kill ratio 5% or less (practically no effect)); f (beet) effect on crop grade [37]: 3 (weed kill ratio 40% or more, less than 70%)
